Paper PMC5545217 (Nature Communications, 2017)
Entries after “also recorded” stand apart in the source; their conditions may differ.

Molecular target: D216V ATP-PRT (Mycobacterium tuberculosis, UniProt P9WMN1, D216V)
Assay type: biochemical

Structure (SMILES)	Inhibition of D216V ATP-PRT	Activation of D216V ATP-PRT
N[C@@H](Cc1c[nH]cn1)C(=O)O [L-His, L-histidine, reference compound]	no longer inhibited by L-His; also recorded: did not change D216 V activity	
N[C@@H](Cc1cccs1)C(=O)O [TIH, 3-(2-thienyl)-L-alanine]		still activated by TIH
